# Calls of active or inactive are those of the source. No rule for the calls is given here.
# Tested on: CCRIS mutagenicity, Ames/micronucleus/aberration tests
# Assay: CCRIS mutagenicity studies
# From the text: The CCRIS database contains chemical records with carcinogenicity, mutagenicity, tumor promotion, and tumor inhibition test results. It was developed by the National Cancer Institute (NCI). Data are derived from studies cited in primary journals, current awareness tools, NCI reports, and other sources. Test results have been reviewed by experts in carcinogenesis and mutagenesis.
# CCRIS provides historical information from the years 1985 - 2011. It is no longer updated.
# This is an archive assay for CCRIS mutagenicity studies.
# [1] = Test System: AMES SALMONELLA TYPHIMURIUM, Strain/Indicator: TA98, Metabolic Activation: NONE, Method: PREINCUBATION
# [2] = Test System: AMES SALMONELLA TYPHIMURIUM, Strain/Indicator: TA100, Metabolic Activation: NONE, Method: PREINCUBATION
# [3] = Test System: AMES SALMONELLA TYPHIMURIUM, Strain/Indicator: TA1535, Metabolic Activation: NONE, Method: PREINCUBATION
# [4] = Test System: AMES SALMONELLA TYPHIMURIUM, Strain/Indicator: TA1537, Metabolic Activation: NONE, Method: PREINCUBATION
# [5] = Test System: AMES SALMONELLA TYPHIMURIUM, Strain/Indicator: TA100, Metabolic Activation: NONE, Method: STANDARD PLATE
# [6] = Test System: AMES SALMONELLA TYPHIMURIUM, Strain/Indicator: TA98, Metabolic Activation: RAT, LIVER, S-9, AROCLOR 1254, Method: PREINCUBATION
# [7] = Test System: AMES SALMONELLA TYPHIMURIUM, Strain/Indicator: TA100, Metabolic Activation: RAT, LIVER, S-9, AROCLOR 1254, Method: PREINCUBATION
# [8] = Test System: AMES SALMONELLA TYPHIMURIUM, Strain/Indicator: TA1535, Metabolic Activation: RAT, LIVER, S-9, AROCLOR 1254, Method: PREINCUBATION
# [9] = Test System: AMES SALMONELLA TYPHIMURIUM, Strain/Indicator: TA1537, Metabolic Activation: RAT, LIVER, S-9, AROCLOR 1254, Method: PREINCUBATION
# [10] = Test System: AMES SALMONELLA TYPHIMURIUM, Strain/Indicator: TA98, Metabolic Activation: NONE, Method: STANDARD PLATE
smiles,measurement,setting,value
C1=CC2C3C=CC(C3)C2C1 (stereo unspecified),mutagenic call,"Test System: AMES SALMONELLA TYPHIMURIUM, Strain/Indicator: TA98, Metabolic Activation: HAMSTER, LIVER, S-9, AROCLOR 1254 (10%), Method: PREINCUBATION",inactive; negative
same,mutagenic call,[1],inactive; negative
same,mutagenic call,"Test System: AMES SALMONELLA TYPHIMURIUM, Strain/Indicator: TA98, Metabolic Activation: RAT LIVER S-9, PHENOBARBITAL AND BETA-NAPHTHOFLAVONE, Method: PREINCUBATION",inactive; negative
same,mutagenic call,"Test System: AMES SALMONELLA TYPHIMURIUM, Strain/Indicator: TA98, Metabolic Activation: RAT, LIVER, S-9, AROCLOR 1254 (10%), Method: PREINCUBATION",inactive; negative
same,mutagenic call,"Test System: AMES SALMONELLA TYPHIMURIUM, Strain/Indicator: TA100, Metabolic Activation: HAMSTER, LIVER, S-9, AROCLOR 1254 (10%), Method: PREINCUBATION",inactive; negative
same,mutagenic call,[2],inactive; negative
same,mutagenic call,"Test System: AMES SALMONELLA TYPHIMURIUM, Strain/Indicator: TA100, Metabolic Activation: RAT LIVER S-9, PHENOBARBITAL AND BETA-NAPHTHOFLAVONE, Method: PREINCUBATION",inactive; negative
same,mutagenic call,"Test System: AMES SALMONELLA TYPHIMURIUM, Strain/Indicator: TA100, Metabolic Activation: RAT, LIVER, S-9, AROCLOR 1254 (10%), Method: PREINCUBATION",inactive; negative
same,mutagenic call,"Test System: AMES SALMONELLA TYPHIMURIUM, Strain/Indicator: TA1535, Metabolic Activation: HAMSTER, LIVER, S-9, AROCLOR 1254 (10%), Method: PREINCUBATION",inactive; negative
same,mutagenic call,[3],inactive; negative
same,mutagenic call,"Test System: AMES SALMONELLA TYPHIMURIUM, Strain/Indicator: TA1535, Metabolic Activation: RAT LIVER S-9, PHENOBARBITAL AND BETA-NAPHTHOFLAVONE, Method: PREINCUBATION",inactive; negative
same,mutagenic call,"Test System: AMES SALMONELLA TYPHIMURIUM, Strain/Indicator: TA1535, Metabolic Activation: RAT, LIVER, S-9, AROCLOR 1254 (10%), Method: PREINCUBATION",inactive; negative
same,mutagenic call,"Test System: AMES SALMONELLA TYPHIMURIUM, Strain/Indicator: TA1537, Metabolic Activation: HAMSTER, LIVER, S-9, AROCLOR 1254 (10%), Method: PREINCUBATION",inactive; negative
same,mutagenic call,[4],inactive; negative
same,mutagenic call,"Test System: AMES SALMONELLA TYPHIMURIUM, Strain/Indicator: TA1537, Metabolic Activation: RAT LIVER S-9, PHENOBARBITAL AND BETA-NAPHTHOFLAVONE, Method: PREINCUBATION",inactive; negative
same,mutagenic call,"Test System: AMES SALMONELLA TYPHIMURIUM, Strain/Indicator: TA1537, Metabolic Activation: RAT, LIVER, S-9, AROCLOR 1254 (10%), Method: PREINCUBATION",inactive; negative
same,mutagenic call,"Test System: E.COLI, Strain/Indicator: WP2UVRA, Metabolic Activation: NONE, Method: PREINCUBATION",inactive; negative
same,mutagenic call,"Test System: E.COLI, Strain/Indicator: WP2UVRA, Metabolic Activation: RAT LIVER S-9, PHENOBARBITAL AND BETA-NAPHTHOFLAVONE, Method: PREINCUBATION",inactive; negative
Cn1ccnc1[N+](=O)[O-],mutagenic call,[5],active; positive
CC1(C)C(=O)N(Cl)C(=O)N1Cl,mutagenic call,"End Point: IN VITRO CHROMOSOMAL ABERRATIONS, Test System: CHINESE HAMSTER OVARY CELLS, Metabolic Activation: NONE",inactive; negative
same,mutagenic call,"End Point: IN VITRO CHROMOSOMAL ABERRATIONS, Test System: CHINESE HAMSTER OVARY CELLS, Metabolic Activation: RAT, LIVER, S-9, AROCLOR 1254",inactive; negative
same,mutagenic call,"Test System: AMES SALMONELLA TYPHIMURIUM, Strain/Indicator: TA98, Metabolic Activation: HAMSTER, LIVER, S-9, AROCLOR 1254, Method: PREINCUBATION",inactive; negative
same,mutagenic call,[1],inactive; negative
same,mutagenic call,[6],inactive; negative
same,mutagenic call,"Test System: AMES SALMONELLA TYPHIMURIUM, Strain/Indicator: TA100, Metabolic Activation: HAMSTER, LIVER, S-9, AROCLOR 1254, Method: PREINCUBATION",inactive; negative
same,mutagenic call,[2],inactive; negative
same,mutagenic call,[7],inactive; negative
same,mutagenic call,"Test System: AMES SALMONELLA TYPHIMURIUM, Strain/Indicator: TA1535, Metabolic Activation: HAMSTER, LIVER, S-9, AROCLOR 1254, Method: PREINCUBATION",inactive; negative
same,mutagenic call,[3],inactive; negative
same,mutagenic call,[8],inactive; negative
same,mutagenic call,"Test System: AMES SALMONELLA TYPHIMURIUM, Strain/Indicator: TA1537, Metabolic Activation: HAMSTER, LIVER, S-9, AROCLOR 1254, Method: PREINCUBATION",inactive; negative
same,mutagenic call,[4],inactive; negative
same,mutagenic call,[9],inactive; negative
C[C@H]1SC[C@@H](C(=O)N[C@@H](Cc2cnc[nH]2)C(=O)N2CCC[C@H]2C(N)=O)NC1=O,mutagenic call,[1],inactive; negative
same,mutagenic call,[6],inactive; negative
same,mutagenic call,[2],inactive; negative
same,mutagenic call,[7],inactive; negative
same,mutagenic call,[3],inactive; negative
same,mutagenic call,[8],inactive; negative
same,mutagenic call,[4],inactive; negative
same,mutagenic call,[9],inactive; negative
same,mutagenic call,"Test System: E. COLI, Strain/Indicator: WP2 UVRA, Metabolic Activation: NONE, Method: PREINCUBATION",inactive; negative
same,mutagenic call,"Test System: E. COLI, Strain/Indicator: WP2 UVRA, Metabolic Activation: RAT, LIVER, S-9, AROCLOR 1254, Method: PREINCUBATION",inactive; negative
Cn1cnc(-c2ccccc2)c1N=O,mutagenic call,[5],active; positive
Nc1cccc2c1-c1ccccc1C2,mutagenic call,"Test System: AMES SALMONELLA TYPHIMURIUM, Strain/Indicator: TA98, Metabolic Activation: RAT, LIVER, S-9, AROCLOR 1254 (2 OR 4%), Method: STANDARD PLATE",active; positive
same,mutagenic call,"Test System: AMES SALMONELLA TYPHIMURIUM, Strain/Indicator: TA100, Metabolic Activation: RAT, LIVER, S-9, AROCLOR 1254 (2%), Method: STANDARD PLATE",active; positive
same,mutagenic call,"Test System: AMES SALMONELLA TYPHIMURIUM, Strain/Indicator: TA1535, Metabolic Activation: RAT, LIVER, S-9, AROCLOR 1254 (2%), Method: STANDARD PLATE",inactive; negative
same,mutagenic call,"Test System: AMES SALMONELLA TYPHIMURIUM, Strain/Indicator: TA1537, Metabolic Activation: RAT, LIVER, S-9, AROCLOR 1254 (2%), Method: STANDARD PLATE",inactive; negative
C1=C\CC/C=C\CC/1.Nc1ccccc1.[Cl-].[Rh],mutagenic call,"Test System: AMES SALMONELLA TYPHIMURIUM, Strain/Indicator: TA2410, Metabolic Activation: NONE, Method: STANDARD PLATE",inactive; negative
CCN(C(=O)CCCCl)c1snc2ccccc12,mutagenic call,[10],inactive; negative
same,mutagenic call,"Test System: AMES SALMONELLA TYPHIMURIUM, Strain/Indicator: TA98, Metabolic Activation: S-9, Method: STANDARD PLATE",inactive; negative
same,mutagenic call,[5],inactive; negative
same,mutagenic call,"Test System: AMES SALMONELLA TYPHIMURIUM, Strain/Indicator: TA100, Metabolic Activation: S-9, Method: STANDARD PLATE",inactive; negative
same,mutagenic call,"Test System: AMES SALMONELLA TYPHIMURIUM, Strain/Indicator: TA1535, Metabolic Activation: NONE, Method: STANDARD PLATE",inactive; negative
same,mutagenic call,"Test System: AMES SALMONELLA TYPHIMURIUM, Strain/Indicator: TA1535, Metabolic Activation: S-9, Method: STANDARD PLATE",inactive; negative
same,mutagenic call,"Test System: AMES SALMONELLA TYPHIMURIUM, Strain/Indicator: TA1537, Metabolic Activation: NONE, Method: STANDARD PLATE",inactive; negative
same,mutagenic call,"Test System: AMES SALMONELLA TYPHIMURIUM, Strain/Indicator: TA1537, Metabolic Activation: S-9, Method: STANDARD PLATE",inactive; negative
CC(C)c1c(N)ccc2ccccc12,mutagenic call,[10],inactive; negative
same,mutagenic call,"Test System: AMES SALMONELLA TYPHIMURIUM, Strain/Indicator: TA98, Metabolic Activation: RAT LIVER S-9, AROCLOR, Method: STANDARD PLATE",active; positive
same,mutagenic call,[5],inactive; negative
same,mutagenic call,"Test System: AMES SALMONELLA TYPHIMURIUM, Strain/Indicator: TA100, Metabolic Activation: RAT LIVER S-9, AROCLOR, Method: STANDARD PLATE",active; positive

# — PubChem BioAssay AID1259407 (Chemical Carcinogenesis Research Information System (CCRIS), 2018)
